Data: PMC11744973, “Optimized extraction and kinetic study of cholesterol oxidase from a newly isolated Escherichia fergusonii strain from local whey samples: insights through a combined experimental study and artificial neural network modeling” (BMC Microbiology, 2025)

System: T1, cholesterol oxidase (ChoX, ChOx)
T1 construct: native extracellular enzyme purified from culture supernatant (ammonium sulfate, Q-Sepharose)
Test: HRP-coupled 4-aminoantipyrine/phenol quinoneimine assay at […] nm, Lineweaver-Burk
Format: biochemical, Escherichia fergusonii
Details: optimum conditions (30 °C, pH 7.5, in the presence of MgSO4 per abstract); KPB; cholesterol 0.1-3.0 mM in Triton X-100; O2 co-substrate

CC(C)CCC[C@@H](C)[C@H]1CC[C@H]2[C@@H]3CC=C4C[C@@H](O)CC[C@]4(C)[C@H]3CC[C@]12C [cholesterol] was tested. Which Km did it give?
The Km was 710 µM.
